In US12661382B2, “Method for obtaining oleocanthal type secoiridoids and for producing respective pharmaceutical preparations” (OMPHAX SA, priority 2019, dated 2026):

Test: water solubility
Format: physicochemical

| Substance | water solubility with respect to substances (1-6) |
| --- | --- |
| 5S-(E)-oleokoronadiol [Substance 10] | greatly increased water solubility |
| 5S-(E)-oleomissionadiol [Substance 9] | greatly increased water solubility |
| S-(E)-oleaceinediol [Substance 8] | greatly increased water solubility |
| S-(E)-oleocanthadiol [Substance 7] | greatly increased water solubility |
| ligstrodiol [Substance 12] | greatly increased water solubility |
| oleuropeinediol [Substance 11] | greatly increased water solubility |
